Patent US12410157B2, “Compound useful as toll-like receptor 7 activation inhibitor” (TOYAMA PREFECTURAL UNIVERSITY, priority 2020, dated 2025)

Experiments:
mouse TLR7 = biological target: T1, mouse TLR7 (Mus musculus, UniProt P58681); assay: Inhibition of TLR7 activation in mouse TLR7-expressing NF-κB-GFP reporter Ba/F3 cells; assay type: cell-based; conditions: Example 5, Table 5; method of Example 2; read-out: IC50
T1 construct: expressed in transfected cells; host or cells: Ba/F3 cells (provided by Prof. Kensuke Miyake, University of Tokyo)
T1 sequence (P58681 27-1050): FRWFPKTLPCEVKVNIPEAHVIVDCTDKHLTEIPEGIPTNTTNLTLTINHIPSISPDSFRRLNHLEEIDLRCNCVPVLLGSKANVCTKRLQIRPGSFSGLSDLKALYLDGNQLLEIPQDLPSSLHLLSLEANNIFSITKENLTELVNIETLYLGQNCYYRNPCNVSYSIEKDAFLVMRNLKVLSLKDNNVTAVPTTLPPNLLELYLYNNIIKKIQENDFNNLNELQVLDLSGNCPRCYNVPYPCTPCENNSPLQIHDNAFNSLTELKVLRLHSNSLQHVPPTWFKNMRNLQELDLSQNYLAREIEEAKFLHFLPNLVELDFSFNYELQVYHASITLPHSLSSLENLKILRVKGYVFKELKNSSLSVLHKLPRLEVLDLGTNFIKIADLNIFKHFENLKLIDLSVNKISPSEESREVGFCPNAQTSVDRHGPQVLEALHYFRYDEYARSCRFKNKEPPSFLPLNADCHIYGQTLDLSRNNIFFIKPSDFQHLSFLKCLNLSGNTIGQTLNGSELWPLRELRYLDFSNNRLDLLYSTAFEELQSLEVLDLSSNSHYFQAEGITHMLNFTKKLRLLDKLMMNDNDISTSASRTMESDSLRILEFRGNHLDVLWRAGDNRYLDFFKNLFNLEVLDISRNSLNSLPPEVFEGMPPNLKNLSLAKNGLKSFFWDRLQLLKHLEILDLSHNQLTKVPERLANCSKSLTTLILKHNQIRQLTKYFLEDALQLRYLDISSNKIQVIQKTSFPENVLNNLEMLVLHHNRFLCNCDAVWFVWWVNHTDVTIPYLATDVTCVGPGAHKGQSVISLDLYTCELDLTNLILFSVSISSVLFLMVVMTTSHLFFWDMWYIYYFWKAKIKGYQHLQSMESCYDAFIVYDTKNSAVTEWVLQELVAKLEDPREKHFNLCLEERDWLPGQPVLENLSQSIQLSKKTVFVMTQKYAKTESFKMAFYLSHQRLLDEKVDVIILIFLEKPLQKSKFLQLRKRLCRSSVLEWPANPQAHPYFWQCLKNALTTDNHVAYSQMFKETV
Description: Mouse TLR7-expressing reporter cells (Ba/F3 cells) were used to evaluate inhibition of TLR7 activation in each derivative and CB-7. These cells were provided by Professor Kensuke Miyake (Department of Infection Genetics, Institute of Medical Science, University of Tokyo). These cells have been transfected with a reporter gene that connects GFP gene downstream of the promoter region of NF-κB. Therefore, the expression of GFP is enhanced by the addition of a ligand for TLR7 expressed by the cells. The fluorescence intensity of GFP was attenuated by the addition of each derivative, and the inhibition of TLR7 activation by each derivative was evaluated as an indicator.
Loxoribine (Alexis Biochemicals) was used as the ligand for mouse TLR7. Gardiquimod (Invivogen) was used as the ligand for human TLR7.
Ba/F3 cells cultured in RPMI 1640 medium containing 10% (v/v) fetal calf serum (FCS), 50 U/mL penicillin, 50 μg/mL streptomycin, 2 mM L-glutamine, […] 2-mercaptoethanol, 1 ng/mL interleukin-3 were aliquoted into 96-well plates so that the number of cells per well was 1.0×10^5 cells/100 μL. 50 μL of each derivative or CB-7, prepared to final concentrations of 1, 5, 10, 25, 50, and 100 µM, was added to each well. 96-well plates were incubated at 37° C. for 30 minutes in the presence of 5% CO2. Next, 250 μg/mL Roxoribin was added to each well and incubated for 18 hours. At the end of incubation, cells were washed with PBS (FACS buffer) containing 2.5% (v/v) FCS and suspended in 200 μL of FACS buffer containing 25 μg/mL […] for each cell. GFP fluorescence intensities of the cells were analyzed by flow cytometry. Flow cytometry measurement was performed on a FACSCanto™ II (Becton Dickinson) and data were analyzed with FlowJo software (Tree Star). The MFI (%) upon stimulation with roxoribin in the presence of […] derivatives or CB-7 was calculated using the MFI upon stimulation with roxoribin alone as 100%, and then IC50 (chemical compound concentration that inhibits activity by 50%) was calculated by logistic regression analysis.
The evaluation of the TLR7 activation inhibition by B2-24-4-5A·HCOOH was performed by the method described in Example 2. CB-7 and B2-24-4·HCl were used as controls.

[1] = test system: Cytochrome P450 (CYP), mouse liver microsomes; assay: Metabolic stability (CYP) using mouse liver microsomes, HPLC; assay type: in vitro ADME; conditions: for Area (%) of peak: LC-UV (220 nm)
Protocol: For CB-7, B2-24, and B2-5A, 10 mg/mL DMSO solution was used. Each chemical compound was diluted with acetonitrile to 0.1 mg/mL, which was used as the analytical standard. Mouse liver microsomal fractions were rapidly thawed in a warm bath at 37° C. and kept on ice. Reaction buffer containing CYP cofactor was prepared on ice and mixed with the microsomal fractions. The reaction solution was preincubated at 37° C. for 5 minutes, and then the test substance solution was added and mixed well by pipetting. The volume of the reaction solution was 200 μL and the final concentration of the test substance was 0.1 mg/mL. The reaction solution was incubated at 37° C. for 30 minutes or 2 hours, and the reaction was stopped by adding 3 times the volume of acetonitrile and vortexing. After the reaction was stopped, the samples were centrifuged, and each supernatant was separated and dried in an evaporator. 50 μL of 50% acetonitrile solution was added to each solidified sample, and each sample was re-dissolved by vortexing for 5 minutes. Each redissolved solution was centrifuged, and each supernatant was subjected to HPLC analysis using a HITACHI Lachrom ELITE (HITACHI) as a HPLC system and COSMOSIL 5C18-MS-II, 4.6 mmI.D.×150 mm (nacalai tesque Co.) as a column.
Metabolic stability analysis of CB-7 and B2-24-4-5A·HCOOH was performed by the method of Example 5.

## C=C(C)[C@@H]1CC[C@]2(COC(=O)C2)C[C@H]1c1ccc(CN2CCNCC2)cc1 [B2-24-4-5A·HCOOH]
Mouse TLR7
  IC50: 167 nM
[1]; Example 9
  Number of peaks detected by HPLC: 6
[1]; Example 9, 0 h
  Area (%) of peak: 100%
[1]; Example 9, incubation 0.5 h
  Area (%) of peak: 95.4%
[1]; Example 9, incubation 2.0 h
  Area (%) of peak: 88.4%
[1]; words
  Drug metabolism mainly by CYPs compared to CB-7: significantly improved drug metabolism
